The values below come from PubChem BioAssay (NCI).

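The compound was tested at five concentrations on cells cultured in 96-well plates, with a 48-hour exposure period. At the TGI there is no net growth.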 Bounds are passed on as bounds.

Test systems include OVCAR-3 ovarian; UACC-257 melanoma; SF-295 CNS; MDA-MB-231 breast; MDA-MB-435; OVCAR-8 ovarian; HCT-15 colon; SK-MEL-5 melanoma; SNB-75 CNS; SN12C renal.
Experiment in all cases: NCI tumour cell line growth inhibition, 48 h

In the case of `CC1(C)CC(=O)C(=CN2C(=O)CNC2=S)C(=O)C1`, the TGI with OVCAR-3 ovarian, in the assay on UACC-257 melanoma, in the assay on SF-295 CNS, in the assay with MDA-MB-231 breast, in the assay with MDA-MB-435 and in the assay on OVCAR-8 ovarian was above 100 µM each time. Also, the TGI with HCT-15 colon, in the assay with SK-MEL-5 melanoma, with SNB-75 CNS and in the assay with SN12C renal was above 100 µM each time.

Turning to `COC(=O)C1[C@H](C(=O)OC)C1(Br)CBr` (stereo not given in full), the TGI in the assay on OVCAR-3 ovarian, in the assay with UACC-257 melanoma, in the assay with SF-295 CNS, with MDA-MB-231 breast, in the assay with MDA-MB-435 and in the assay on OVCAR-8 ovarian was above 100 µM throughout. The TGI in the assay on HCT-15 colon, with SK-MEL-5 melanoma, in the assay with SNB-75 CNS and in the assay on SN12C renal was above 100 µM each time.

Regarding `O=C(NCc1cccnc1)C(=O)NCc1cccnc1`, the TGI in the assay on OVCAR-3 ovarian, in the assay with UACC-257 melanoma, in the assay on SF-295 CNS, in the assay with MDA-MB-231 breast, with MDA-MB-435 and with OVCAR-8 ovarian was above 100 µM each time. The TGI in the assay with HCT-15 colon, with SK-MEL-5 melanoma, in the assay with SNB-75 CNS and with SN12C renal was above 100 µM each time.

Regarding `Nc1ccc(-c2nc3ccccc3s2)cc1`, the TGI in the assay on OVCAR-3 ovarian was 33.3 µM; with UACC-257 melanoma it was 49.7 µM; in the assay with SF-295 CNS it was above 74.9 µM; with MDA-MB-231 breast, 31.9 µM; in the assay with MDA-MB-435, 32.1 µM; with OVCAR-8 ovarian it was 17.7 µM. Also, the TGI with HCT-15 colon was 40.4 µM; with SK-MEL-5 melanoma, 50.1 µM; in the assay with SNB-75 CNS it was 58.1 µM; with SN12C renal, 43.5 µM.
